Assay [1] deals with Shionogi mouse mammary carcinoma cells. Kind of assay: cells. In kind it is cell-based. The following applies: for % of inh of DHT at 10^−7 M (Basal = 100%): 0.0003 µM; for Ki: read-out: Shionogi cells Antiandrogenic activity Ki.
The target of assay [2] is T1, Human Androgen Receptor (Homo sapiens, UniProt P10275).
T1 construct: expressed in transfected cells; host or cells: HEK-293 cells stably transfected with the pCMVneo-hAR plasmid (G-418 selection); cytosol used
T1 sequence (P10275 1-920): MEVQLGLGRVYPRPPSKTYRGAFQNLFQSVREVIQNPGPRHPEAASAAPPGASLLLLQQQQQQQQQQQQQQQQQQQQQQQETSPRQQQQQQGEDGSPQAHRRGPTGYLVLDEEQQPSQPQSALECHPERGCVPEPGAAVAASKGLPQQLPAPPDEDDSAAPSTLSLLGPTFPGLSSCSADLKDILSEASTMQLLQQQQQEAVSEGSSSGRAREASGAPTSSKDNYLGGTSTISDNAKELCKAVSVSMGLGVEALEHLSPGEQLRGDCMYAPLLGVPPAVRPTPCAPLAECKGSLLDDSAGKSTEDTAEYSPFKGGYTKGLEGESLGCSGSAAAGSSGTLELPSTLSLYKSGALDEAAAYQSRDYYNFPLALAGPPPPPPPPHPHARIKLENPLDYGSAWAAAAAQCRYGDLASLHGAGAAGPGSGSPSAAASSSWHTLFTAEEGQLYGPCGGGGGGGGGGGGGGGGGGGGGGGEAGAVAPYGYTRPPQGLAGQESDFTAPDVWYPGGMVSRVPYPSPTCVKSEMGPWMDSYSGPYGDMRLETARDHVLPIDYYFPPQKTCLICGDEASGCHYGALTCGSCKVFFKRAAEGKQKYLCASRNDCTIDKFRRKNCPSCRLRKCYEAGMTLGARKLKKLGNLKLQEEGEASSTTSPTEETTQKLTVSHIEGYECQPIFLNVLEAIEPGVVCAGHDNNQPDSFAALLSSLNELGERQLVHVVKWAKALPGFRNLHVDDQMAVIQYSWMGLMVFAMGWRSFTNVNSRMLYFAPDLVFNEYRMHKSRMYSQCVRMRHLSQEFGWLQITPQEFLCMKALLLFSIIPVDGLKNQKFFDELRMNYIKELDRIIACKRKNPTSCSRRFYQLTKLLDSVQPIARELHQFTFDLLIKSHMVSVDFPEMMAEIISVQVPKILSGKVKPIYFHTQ
In kind it is binding.

For assay [3], the system named is Intact Rat. The assay is described as follows: In vivo activity in intact rat (organ and muscle weight). The following applies: rat, in vivo.
Assay [4] relates to Immature Rat CX. Conditions: for In Vivo Agonist % Change vs CX (DHT = +100%) SV / In Vivo Agonist % Change vs CX (DHT = +100%) VP: po.
For assay [5], the system named is Immature Rat CX + DHT. Kind of assay: animal or person. It counts as in vivo. Conditions: po; for change in vivo at 0.1 mg / change in vivo at 0.5 mg: Rattus norvegicus, 168 h.
Where [6] appears, read: read-out: In Vivo Antagonist % Change vs DHT (CX = −100%) SV.
Setting [7] is: read-out: In Vivo Antagonist % Change vs DHT (CX = −100%) VP.

SMILES strings stand for the structures. Like-named read-outs stand apart in the source and are kept apart here.

On to `CCC1CC2(C)C(CCC2(O)Cc2cc[n+]([O-])cc2)C2CCc3c(ccc(C#N)c3F)C12` (stereo not shown) [EM-8987], for which, in assay [1], the “% of stim of basal at 10^−7M (% over basal)” value (“% of stim of basal at 10^−7M” for short) was “+73%”, the “% of stim of basal at 10^−7 M (DHT = 100%)” value (shortened to “% of stim of basal at 10^−7 M”) is “+74%” and the “% of inh of DHT at 10^−7 M (Basal = 100%)” value (“% of inh of DHT at 10^−7 M” for short) is listed as “+35%”. Further, the “Human Androgen Receptor Binding RBA (%) R1881 = 100%” value in assay [2] was 26%. For the same compound, in assay [3], the “In Vivo Intact Rat % change vs Intact CONT (Intact CONT = +100%; CX CONT = 0%) Bulbo” value is reported as “+292 ± 30%”, the “In Vivo Intact Rat % change vs Intact CONT (Intact CONT = +100%; CX CONT = 0%) SZ” value is recorded as “+110 ± 13%” and the “In Vivo Intact Rat % change vs Intact CONT (Intact CONT = +100%; CX CONT = 0%) VP” value was “+84 ± 4%”. Moreover, in assay [4], the “In Vivo Agonist Rat CX % change vs CX (DHT CONT = +100%) Bulbo” value was “+118 ± 10%”, the “In Vivo Agonist Rat CX % change vs CX (DHT CONT = +100%) SV” value was “+25 ± 5%” and the “In Vivo Agonist Rat CX % change vs CX (DHT CONT = +100%) VP” value is “+56 ± 11%”.

`Cc1c(C#N)ccc2c1CCC1C2CC[C@@]2(C)C1CC[C@@]2(O)Cc1ccncc1` (stereo partly shown) [EM-5984]: in assay [1], the “Shionogi cells Antiandrogenic activity Ki OH-Flu/Ki compound” value is recorded as 4.0 and the Ki (commonly a measure of affinity in units of concentration, obtained from inhibition or displacement) was 1.9 nM. Moreover, the “Human Androgen Receptor Binding RBA (%) R1881 = 100%” value in assay [2] was found to be 29%. Moreover, in assay [4], the “In Vivo Agonist % Change vs CX (DHT = +100%) SV” value came out at 0% and the “In Vivo Agonist % Change vs CX (DHT = +100%) VP” value is recorded as 0%.

`Cc1c(C#N)ccc2c1CCC1C2CCC2(C)C1CCCC2(O)Cc1cc[n+]([O-])cc1` (stereo not shown) [EM-9140]: in assay [1], the “Shionogi cells Antiandrogenic activity Ki OH-Flu/Ki compound” value came to 11 and the inhibition constant Ki came out at 1.2 nM. Also, in assay [2], the “Human Androgen Receptor Binding RBA (%) R1881 = 100%” value is on record as 1.4%. Besides, in assay [4], the “In Vivo Agonist % Change vs CX (DHT = +100%) SV” value was 0% and the “In Vivo Agonist % Change vs CX (DHT = +100%) VP” value turned out to be 0%.

As for `CC1CC2(C)C(CCC2(O)Cc2cc[n+]([O-])cc2F)C2CCc3c(ccc(C#N)c3F)C12` (stereo not shown) [EM-6595], in assay [5] (rat, in vivo), the “In Vivo Anti-A Rat CX + DHT % change vs DHT (CX CONT = −100%) SV” value was “[−74 ± 3] %” and the “In Vivo Anti-A Rat CX + DHT % change vs DHT (CX CONT = −100%) VP” value is “[−56 ± 5] %”. Besides, in assay [1], the “% of stim of basal at 10^−7M” value was “+117 ± 11%”, the “% of stim of basal at 10^−7 M” value was “+43 ± 13%” and the “% of inh of DHT at 10^−7 M” value is −58 ± 13%. In assay [2], the “Human Androgen Receptor Binding RBA (%) R1881 = 100%” value turned out to be 13%. Besides, in assay [3], the “In Vivo Intact Rat % change vs Intact CONT (Intact CONT = +100%; CX CONT = 0%) Bulbo” value is given as “+162 ± 9%”, the “In Vivo Intact Rat % change vs Intact CONT (Intact CONT = +100%; CX CONT = 0%) SZ” value is “+40 ± 3%” and the “In Vivo Intact Rat % change vs Intact CONT (Intact CONT = +100%; CX CONT = 0%) VP” value is “+67 ± 10%”. Moreover, in assay [4], the “In Vivo Agonist Rat CX % change vs CX (DHT CONT = +100%) Bulbo” value is “+97 ± 9%”, the “In Vivo Agonist Rat CX % change vs CX (DHT CONT = +100%) SV” value is recorded as “+14 ± 1%” and the “In Vivo Agonist Rat CX % change vs CX (DHT CONT = +100%) VP” value is given as “+28 ± 3%”.

As for `CC[C@H]1C[C@@]2(C)C(CC[C@@]2(O)Cc2ccncc2)C2CCc3c(ccc(C#N)c3F)C21` (stereo partly shown) [EM-8986], in assay [5] (rat, in vivo), the “In Vivo Anti-A Rat CX + DHT % change vs DHT (CX CONT = −100%) Bulbo” value is “+74 ± 13%”, the “In Vivo Anti-A Rat CX + DHT % change vs DHT (CX CONT = −100%) SV” value is on record as −25 ± 4% and the “In Vivo Anti-A Rat CX + DHT % change vs DHT (CX CONT = −100%) VP” value is −24 ± 3%. Also, in assay [1], the “% of stim of basal at 10^−7M” value was “+21%”, the “% of stim of basal at 10^−7 M” value was “+9%” and the “% of inh of DHT at 10^−7 M” value is “+44%”. For the same compound, in assay [2], the “Human Androgen Receptor Binding RBA (%) R1881 = 100%” value is listed as 508%. In addition, in assay [3], the “In Vivo Intact Rat % change vs Intact CONT (Intact CONT = +100%; CX CONT = 0%) Bulbo” value is on record as “+241 ± 27%”, the “In Vivo Intact Rat % change vs Intact CONT (Intact CONT = +100%; CX CONT = 0%) SZ” value is “+98 ± 7%” and the “In Vivo Intact Rat % change vs Intact CONT (Intact CONT = +100%; CX CONT = 0%) VP” value was “+76 ± 11%”. Moreover, in assay [4], the “In Vivo Agonist Rat CX % change vs CX (DHT CONT = +100%) Bulbo” value was “+149 ± 13%”, the “In Vivo Agonist Rat CX % change vs CX (DHT CONT = +100%) SV” value is “+24 ± 3%” and the “In Vivo Agonist Rat CX % change vs CX (DHT CONT = +100%) VP” value is recorded as “+35 ± 3%”.

For `C[C@]12CCC3c4ccc(C#N)cc4CCC3C1CC[C@@]2(O)Cc1ccc(-c2ccncc2)cc1` (stereo partly shown) [EM-4240], in assay [5] (setting [6]), the change in vivo at 0.1 mg is -58 ± 2% and the change in vivo at 0.5 mg is -85%. Also, in assay [5] (setting [7]), the change in vivo at 0.1 mg is -46 ± 9% and the change in vivo at 0.5 mg is -52%. For the same compound, in assay [1], the “Shionogi cells Antiandrogenic activity Ki OH-Flu/Ki compound” value was 1.4 and the Ki was determined as 24 nM. The “Human Androgen Receptor Binding RBA (%) R1881 = 100%” value in assay [2] was 110%. For the same compound, in assay [4], the “In Vivo Agonist % Change vs CX (DHT = +100%) SV” value is listed as “+3 ± 1%” and the “In Vivo Agonist % Change vs CX (DHT = +100%) VP” value is given as “+12 ± 3%”.

Consider `C[C@]12CCC3c4ccc(C#N)c(Cl)c4CCC3C1CC[C@@]2(O)Cc1ccncc1F` (stereo partly shown) [EM-5988], for which, in assay [5] (rat, in vivo), the “In Vivo Antagonist % Change vs DHT (CX = −100%) SV” value was “[−83 ± 3] %” and the “In Vivo Antagonist % Change vs DHT (CX = −100%) VP” value is “[−71 ± 5] %”. Also, in assay [1], the “Shionogi cells Antiandrogenic activity Ki (nM)” value is recorded as “mixed” and the “Shionogi cells Antiandrogenic activity Ki OH-Flu/Ki compound” value was “mixed”. In addition, the “Human Androgen Receptor Binding RBA (%) R1881 = 100%” value in assay [2] was determined as 97 ± 19%. Moreover, in assay [4], the “In Vivo Agonist % Change vs CX (DHT = +100%) SV” value is “+10 ± 0%” and the “In Vivo Agonist % Change vs CX (DHT = +100%) VP” value is reported as “+10 ± 0%”.

The record behind these values is patent US9284345B2 (priority 2007, dated 2016).
